Assay results as given in patent US20230242587A1, “THYCLOTIDES” (The United States of America,as represented by the …, priority 2020, published 2023).

Assays:
complementary DNA = experiment: Melting temperature of PNA-DNA complexes (thermal denaturation); assay type: binding; settings: for Tm: PNA bound to complementary DNA; for ΔTm: increase over aegPNA 1a-DNA duplex
Source text: Although the stabilizing effect of tetrahydrofuran for PNA-DNA duplex is slightly lower than that of cyclopentane (3d vs 9 and 2a, Table 2), it strikes a balance between water solubility and binding properties and, therefore the combination of those two backbone modifications could be tailor-made to meet the specific requirements.

[1] = system: DNA with a single base mismatch; experiment: Discrimination of single base mismatches (Tm of mismatched PNA-DNA duplex); assay type: binding; settings: for ΔTm (Tm), TC mismatch: number before the brackets / ΔTm (Tm), TG mismatch: number before the brackets / ΔTm (Tm), TT mismatch: number before the brackets: PNA-DNA duplex with single base mismatch; for ΔTm (Tm), TC mismatch: number in brackets / ΔTm (Tm), TG mismatch: number in brackets / ΔTm (Tm), TT mismatch: number in brackets: against fully matched duplex
Source text: The sequence specificity of thyclotide 3d was examined by determining the change in Tm of a PNA-DNA duplex when a single base mismatch is present. […] The large differences in melting temperature between matched PNA-DNA duplex and mismatch PNA-DNA of thyclotide 3d allows one to control hybridization conditions to exclude the formation of mismatched PNA-DNA by adjust the temperature. Such enhanced single base pair mismatch-discrimination capability could make thyclotide 3d become a powerful tool for the detection of point-mutations and single nucleotide polymorphisms (SNPs).

[2] = CD spectra, conformation of PNA; assay type: physicochemical
Experimental: The CD spectra of thyclotides 3a-3d were measured. […] However, in the case of thyclotides 3a-3d, distinct distinctive positive peaks around 220 and 269 nm and negative peaks around 204 and 247 nm were noticed. […] The amplitude of the cotton effects increases as more tetrahydrofuran modifications are introduced.

| CD spectrum / conformation [2] | Substance | Tm (complementary DNA) [°C] | ΔTm (complementary DNA) [°C] | ΔTm (Tm), TC mismatch: number before the brackets [1] | ΔTm (Tm), TC mismatch: number in brackets [1] | ΔTm (Tm), TG mismatch: number before the brackets [1] | ΔTm (Tm), TG mismatch: number in brackets [1] | ΔTm (Tm), TT mismatch: number before the brackets [1] | ΔTm (Tm), TT mismatch: number in brackets [1] | difference in melting temperature between fully matched duplex and duplex with a single base mismatch (ΔTm), in words ([1]; compared with aegPNA, tcypPNA 2a and mixPNA 9) |
| --- | --- | --- | --- | --- | --- | --- | --- | --- | --- | --- |
|  | GAT*GTGAT*A-AEEA [3b] | 49.7 | 7.7 |  |  |  |  |  |  |  |
|  | GAT*GT*GAT*A-AEEA [3c] | 54.9 | 12.9 |  |  |  |  |  |  |  |
| does not show any distinct peaks | GATGTGATA-AEEA [1a, reference compound] | 42.0 |  | 22.9 | −19.2 | 25.4 | −16.6 | 28.2 | −13.8 |  |
|  | G#A#T#G#T#G#A#T#A#-AEEA [2a, reference compound] | 93.7 | 51.7 |  | −30.6 |  | −20.6 |  | −22.8 |  |
|  | G*A*T*G*T*G*A*T*A*-AEEA [3d] | 77 | 35 | 50.7 | −26.2 | 55.6 | −21.4 | 58.2 | −18.8 | significantly higher than that of the corresponding aegPNA |
|  | GATGT*GATA-AEEA [3a] | 44.7 | 2.7 |  |  |  |  |  |  |  |
|  | G*A*T*G#T#G#A*T*A*-AEEA [compound 9] | 84.5 | 42.5 | 57.7 | −27.4 |  | −20.3 |  | −19.5 |  |
